For assay [1], the system named is giant foxtail (SETFA). Nature of the assay: Test 8 field trial, preemergence. The assay is classed as in vivo, Setaria faberi. To be noted: g a.i./ha: Cpd 2 100, Atrazine 1680, S-Metolachlor 1870. From the text:
(§1) Corn seeds (hybrid ‘Pioneer 31G96’) were planted in mid spring season, 3.8 cm deep in a clay loam soil having 2% organic matter and a pH of 6.6. Plots were 6.1 m long by 3.0 m wide with rows spaced 76 cm apart. Seeds were spaced 15 cm apart within the rows. The field was managed using conventional tillage practices. […] A few of the weed species could not be evaluated at every timing. […] Results are the means of the three replicates.

The subject of another assay is velvetleaf (ABUTH). Nature of the assay: Test 1 field trial, preemergence. The settings on record: g a.i./ha: Atrazine 1680, S-Metolachlor 1870. It is filed as in vivo, Abutilon theophrasti. Further details: scale not given here. From the text:
(§2) Corn seeds (hybrid ‘Pioneer 34N43’) were planted in mid spring season, 3.8 cm deep in a silt loam soil having 4.6% organic matter and a pH of 6. Plots were 10.7 m long by 1.5 m wide with rows spaced 76 cm apart. Seeds were spaced 18 cm apart within the rows. The field was managed using conventional tillage practices. […] Results are summarized in Table 1 and are the means of the three replicates. […] Colby's Equation (Colby, S. R. “Calculating Synergistic and Antagonistic Responses of Herbicide Combinations,” Weeds, 15(1), pp 20-22 (1967)) calculates the expected additive effect of herbicidal mixtures, and for two active ingredients is of the form:
(§3) Pa+b=Pa+Pb−(PaPb/100) • wherein Pa+b is the percentage effect of the mixture expected from additive contribution of the individual components, • Pa is the observed percentage effect of the first active ingredient at the same use rate as in the mixture, and • Pb is the observed percentage effect of the second active ingredient at the same use rate as in the mixture.

Assay [2] deals with ivyleaf morningglory (IPOHE). Nature of the assay: Test 8 field trial, preemergence. It is filed as in vivo, Ipomoea hederacea. The settings on record: g a.i./ha: Cpd 2 100, Atrazine 1680, S-Metolachlor 1870.
Excerpt: as §1

Assay [3] concerns giant foxtail (SETFA). Kind of assay: Test 10 field trial, preemergence. It is filed as in vivo, Setaria faberi. To be noted: 28 DAA; g a.i./ha: Cpd 2 100, Atrazine 1680, S-Metolachlor 1870. An excerpt:
Corn seeds (hybrid ‘Pioneer 33P65 RR’) were planted in mid spring season, 2.5 cm deep in a silt loam soil. Plots were 9.1 m long by 3.0 m wide with rows spaced 76 cm apart. The field was managed using conventional tillage practices. […] Results are the means of the three replicates.

Assay [4] relates to giant foxtail (SETFA). Kind of assay: Test 1 field trial, preemergence. The assay is classed as in vivo, Setaria faberi. The settings on record: g a.i./ha: Atrazine 1680, S-Metolachlor 1870.
Excerpt: as §2, §3

The subject of assay [5] is Pennsylvania smartweed (POLPY). Nature of the assay: Test 1 field trial, preemergence. The assay is classed as in vivo, Polygonum pensylvanicum. To be noted: g a.i./ha: Atrazine 1680, S-Metolachlor 1870.
Excerpt: as §2, §3

A further assay relates to common ragweed (AMBEL). Nature of the assay: Test 8 field trial, preemergence. The assay is classed as in vivo, Ambrosia artemisiifolia. To be noted: g a.i./ha: Cpd 2 100, Atrazine 1680, S-Metolachlor 1870.
Excerpt: as §1

In the case of `CCc1cccc(C)c1N(C(=O)CCl)[C@@H](C)COC` [S-Metolachlor, S-metolachlor, reference compound], the “SETFA Obs” value turned out to be 93% in the assay on giant foxtail (SETFA) [1] (19 DAA); 100% in the assay on giant foxtail (SETFA) [1] (29 DAA); 94% with giant foxtail (SETFA) [1] (56 DAA); 63% in the assay on giant foxtail (SETFA) [3]; 57 with giant foxtail (SETFA) [4] (28 DAA); 100 with giant foxtail (SETFA) [4] (56 DAA). Further, the entries for the “ABUTH Obs” value with velvetleaf (ABUTH) (28 DAA) and with velvetleaf (ABUTH) (56 DAA) were 33 and 0, respectively. Also, the “IPOHE Obs” value in assay [2] (19 DAA) was found to be 10%; in assay [2] (29 DAA) it was 25%; in assay [2] (56 DAA), 3%. In addition, the “POLPY Obs” value in assay [5] (28 DAA) is recorded as 57; in assay [5] (56 DAA), 20. Besides, the “AMBEL Obs” value in the assay with common ragweed (AMBEL) (19 DAA) is listed as 32%; in the assay on common ragweed (AMBEL) (29 DAA) it was 23%; in the assay on common ragweed (AMBEL) (56 DAA), 23%.

The values above are taken from patent US20100285959A1, “HERBICIDAL MIXTURES” (priority 2006, published 2010).
